Measurements published in ChEMBL document CHEMBL5537157, “Selective Antitumor Effect and Lower Toxicity of Mitochondrion-Targeting Derivatization of Triptolide” (J Med Chem, 2024).
The source made the active and inactive calls. The rule behind the calls is not given here.

Legend:
NCI-H1975 [1] = test: Inhibition of cell proliferation in human NCI-H1975 cells xenografted in zebrafish at 1 uM measured after 48 hrs by confocal microscopy; assay type: functional, cell-based
A549 [2] = test: Cytotoxicity against human A549 cells assessed as cell growth inhibition incubated for 48 hrs by MTT assay; assay type: functional, cell-based
[3] = Toxicity in zebrafish embryo assessed as death rate at 4 uM pretreated with compound followed by replacement of growth liquid by microscopy (reference value: 2.22 +/- 3.84 %); parameters: species or system Danio rerio; conditions: in vivo, read-out: Activity
NCI-H1975 [4] = test: Cytotoxicity against human NCI-H1975 cells assessed as cell growth inhibition at 123 nM by MTT assay; assay type: functional, cell-based; conditions: time 24-70 hrs, TDE = time-dependent effect
[5] = Toxicity in zebrafish embryo assessed as liver development at 0.5 uM with replacement of new growth solution daily by fluorescence microscopy (reference value: 100.00 +/- 8.64 %); assay type: tissue-based, Danio rerio; conditions: in vivo
[6] = Drug accumulation in mitochondria of human NCI-H1975 cells at 10 uM incubated for 7 hrs by HPLC analysis; assay type: ADME; conditions: nci-h1975, 7 h
NCI-H460 = test: Cytotoxicity against human NCI-H460 cells assessed as cell growth inhibition incubated for 48 hrs by MTT assay; assay type: functional, cell-based
[7] = Renal toxicity in zebrafish assessed as decrease in nephrin expression at 2 uM treated for 48 hrs by RT-qPCR analysis; parameters: species or system Danio rerio; conditions: in vivo
[8] = Toxicity in zebrafish embryo assessed as damage effect in liver development at 0.25 uM with replacement of new growth solution daily by fluorescence microscopy relative to control; parameters: species or system Danio rerio; conditions: in vivo
[9] = Toxicity in zebrafish embryo assessed as liver function at 0.5 uM with replacement of new growth solution daily by fluorescence microscopy (reference value: 100 +/- 8.89 %); assay type: tissue-based, Danio rerio; conditions: in vivo
[10] = Toxicity in zebrafish embryo assessed as death rate at 2 uM pretreated with compound followed by replacement of growth liquid by microscopy (reference value: 2.22 +/- 3.84 %); parameters: species or system Danio rerio; conditions: in vivo, read-out: Activity
[11] = Toxicity in zebrafish embryo assessed as damage effect in liver function at 0.5 uM with replacement of new growth solution daily by fluorescence microscopy relative to control; assay type: tissue-based, Danio rerio; conditions: in vivo
[12] = Developmental toxicity in zebrafish AB zygotes assessed as animal mortality at 4 uM treated at 6 hrs post-fertilization measured at 24 to 72 hrs post-fertilization; parameters: species or system Danio rerio; conditions: in vivo, time 18-66 hrs
[13] = Toxicity in zebrafish embryo assessed as liver development at 0.25 uM with replacement of new growth solution daily by fluorescence microscopy (reference value: 100.00 +/- 8.64 %); assay type: tissue-based, Danio rerio; conditions: in vivo
[14] = Toxicity in zebrafish at 2 uM; parameters: species or system Danio rerio; conditions: in vivo
NCI-H1975 [15] = test: Inhibition of cell migration in human NCI-H1975 cells at 2.5 to 5 nM incubated upto 72 hrs by scratch healing assay; assay type: functional, cell-based; conditions: dose 2.5-5 nM
[16] = Toxicity in zebrafish embryo assessed as death rate at 1 uM pretreated with compound followed by replacement of growth liquid by microscopy (reference value: 2.22 +/- 3.84 %); parameters: species or system Danio rerio; conditions: in vivo, read-out: Activity
HepG2 = test: Cytotoxicity against human HepG2 cells assessed as cell growth inhibition incubated for 48 hrs by MTT assay; assay type: functional, cell-based; conditions: dose 4.5-10 nM
[17] = Toxicity in zebrafish embryo assessed as degree of periocular edema at 1 uM pretreated with compound followed by replacement of growth liquid by microscopy (reference value: 0.00 %); parameters: species or system Danio rerio; conditions: in vivo
[18] = Toxicity in zebrafish embryo assessed as damage effect in liver function at 0.25 uM with replacement of new growth solution daily by fluorescence microscopy relative to control; assay type: tissue-based, Danio rerio; conditions: in vivo
[19] = Developmental toxicity in zebrafish AB zygotes assessed as decrease in body length at 0.25 to 4 uM treated at 6 hrs post-fertilization measured at 24 to 72 hrs post-fertilization; parameters: species or system Danio rerio; conditions: in vivo, dose lower 0.25 µM, time lower 18 hrs, dose upper 4 µM, time upper 66 hrs
[20] = Toxicity in zebrafish embryo assessed as degree of periocular edema at 2 uM pretreated with compound followed by replacement of growth liquid by microscopy (reference value: 0.00 %); parameters: species or system Danio rerio; conditions: in vivo
[21] = Toxicity in zebrafish embryo assessed as death rate at 0.5 uM pretreated with compound followed by replacement of growth liquid by microscopy (reference value: 0.00 %); parameters: species or system Danio rerio; conditions: in vivo, read-out: Activity
[22] = Toxicity in zebrafish embryo assessed as liver function at 0.25 uM with replacement of new growth solution daily by fluorescence microscopy (reference value: 100 +/- 8.89 %); assay type: tissue-based, Danio rerio; conditions: in vivo
[23] = Toxicity in zebrafish embryo assessed as damage effect in liver development at 0.5 uM with replacement of new growth solution daily by fluorescence microscopy relative to control; assay type: tissue-based, Danio rerio; conditions: in vivo
[24] = Toxicity in zebrafish embryo assessed as degree of periocular edema at 0.5 uM pretreated with compound followed by replacement of growth liquid by microscopy (reference value: 0.00 %); parameters: species or system Danio rerio; conditions: in vivo
BEAS-2B = test: Induction of ROS generation in human BEAS-2B cells at 0.4 uM incubated for 24 hrs by DCFH-DA probe based analysis; assay type: toxicity, cell-based
[25] = Toxicity in zebrafish embryo assessed as damage effect in liver development at 2 uM with replacement of new growth solution daily by fluorescence microscopy relative to control; assay type: tissue-based, Danio rerio; conditions: in vivo
NCI-H1975 [26] = test: Inhibition of cell viability in human NCI-H1975 cells assessed as effect on cell index at 30 nM by real-time cell analysis; assay type: functional, cell-based
[27] = Drug accumulation in mitochondria of human NCI-H1975 cells at 600 nM incubated for 5 hrs by Red CMXRos probe based analysis; assay type: ADME; conditions: nci-h1975, 5 h, 0.6 µM
NCI-H1975 [28] = test: Induction of apoptosis in human NCI-H1975 cells at 50 to 400 nM incubated for 24 hrs by Annexin V-FITC/PI staining based flow cytometry; assay type: functional, cell-based; conditions: dose 50-400 nM
Danio rerio = species: Danio rerio; test: Induction of ROS production in zebrafish at 2 uM measured after 48 hrs by fluorescence microscopy; assay type: functional, organism-based
[29] = Renal toxicity in fluorescent transgenic zebrafish at 0.5 to 1 uM treated for 48 hrs by fluorescence microscopy; parameters: species or system Danio rerio; conditions: in vivo, dose 0.5-1 µM
[30] = Cytotoxicity against human BEAS-2B cells assessed as inhibition of cell viability incubated for 48 hrs by MTT assay; assay type: toxicity, cell-based
A549 [31] = test: Cytotoxicity against human A549 cells assessed as inhibition of cell viability incubated for 48 hrs by MTT assay; assay type: functional, cell-based; conditions: A549, 48 h
[32] = Toxicity in zebrafish embryo assessed as liver function at 2 uM with replacement of new growth solution daily by fluorescence microscopy (reference value: 100 +/- 8.89 %); assay type: tissue-based, Danio rerio; conditions: in vivo
NCI-H1975 [33] = test: Induction of apoptosis in human NCI-H1975 cells assessed as nuclear shrinkage at 400 nM incubated for 24 hrs by DAPI staining based analysis; assay type: functional, cell-based
[34] = Renal toxicity in zebrafish assessed as FITC dye residue at 2 uM treated for 24 hrs followed by dye treatment measured after 6 hrs by fluorescence microscopy; parameters: species or system Danio rerio; conditions: in vivo, 30 h
[35] = Teratogenic toxicity in zebrafish AB zygotes at 2 to 4 uM treated at 6 hrs post-fertilization measured at 24 to 72 hrs post-fertilization; parameters: species or system Danio rerio; conditions: in vivo, dose lower 2 µM, time lower 18 hrs, dose upper 4 µM, time upper 66 hrs

SMILES | mortality at 4 µM [3] [%] | Activity [5] [%] | Drug uptake [6] | Activity [8] [%] | Activity [9] [%] | mortality at 2 µM [10] [%] | Activity [11] [%] | Activity [12] | Activity [13] [%] | Activity [14] | inhibition (NCI-H1975 [15]) | mortality at 1 µM [16] [%] | Activity [17] [%] | Activity [18] [%] | Activity [20] [%] | mortality at 24 h, 0.5 µM [21] [%] | Activity [22] [%] | Activity [23] [%] | Activity [24] [%] | also measured
CC(C)[C@]12O[C@H]1[C@@H]1O[C@@]13[C@@]1(C)CCC4=C(COC4=O)[C@@H]1C[C@@H]1O[C@@]13C2=O [TRIPTONIDE] | 22.2 | 45.38 | Active | 12.2 | 23.09 | 13.3 | 76.91 | Toxic | 87.8 | Toxic | Active | 11.1 | 13.33 | 49.45 | 48.89 | 2.22 | 50.55 | 54.62 | 6.67 | inhibition (NCI-H1975 [1]): Active; inhibition (A549 [2]): Dose-Dependent Effect; inhibition (NCI-H1975 [4]): Tde; inhibition (NCI-H460): Dose-Dependent Effect; Activity [7]: Toxic; inhibition (HepG2): Active; Activity [19]: Toxic
CC(C)[C@]12O[C@H]1[C@@H]1O[C@]13[C@]1(O[C@H]1C[C@H]1C4=C(CC[C@@]13C)C(=O)OC4)[C@@H]2OC(=O)CCCCCCCC[n+]1ccc(/C=C/c2c[nH]c3ccccc23)cc1.[Br-] | 11.1 | 85 | Active | 4.83 | 51.53 | 6.67 | 48.47 | Non-Toxic | 95.17 | Non-Toxic | Active | 6.67 | 13.33 | 38.54 | 33.33 | 2.22 | 61.46 | 15.05 | 2.22 | Activity (BEAS-2B): Toxic; Activity [25]: 58.21%; inhibition (NCI-H1975 [26]): Active; Drug uptake [27]: Active; Activity (NCI-H1975 [28]): Active; Activity (Danio rerio): Active; Activity [29]: Non-Toxic; IC50 at 48 h [30]: 19.2 µM; IC50 (A549 [31]): 46.1 µM; Activity [32]: 20.04%; Activity (NCI-H1975 [33]): Active; Activity [34]: Toxic; Activity [35]: Toxic
